US20260167656A1, “PHOSPHORAMIDATE COMPOUNDS AND USES THEREOF” (ALLORION THERAPEUTICS INC, priority 2022, published 2026)

How the values were obtained:
[1] = system: non-small cell lung cancer cell line H460; test: H460 proliferation assay in the presence of 3 uM ASP9521 (AKR1C3 specific inhibitor); format: cell-based, human; conditions: H460 cells, CellTiter-Glo, 72 hours, in the presence of 3 uM ASP9521 added 4 hours prior to compounds; read-out: CTG H460: Avg IC50 (nM) [Assay Condition: ASP9521]
Outline: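 AKR1C3 blocked with 3 uM ASP9521 given 4 h ahead of test compounds. H460 cells, plated 24 h earlier, were then treated for 72 h at 37 °C in 5% CO2. CellTiter-Glo luminescence gave viability.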

[2] = system: non-small cell lung cancer cell line H460; test: In vitro human cancer cell line cytotoxicity (proliferation) assay in H460, CellTiter-Glo, 72 hours; format: cell-based; conditions: H460 cells, DMSO condition (no AKR1C3 inhibitor), read-out: CTG H460: Avg IC50 (nM) [Assay Condition: DMSO]
Outline: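 IC50s in nM come from CellTiter-Glo viability read after 72 h of compound exposure. Compounds went in from 10 mM DMSO stocks onto H460 cells, which had been plated at 3×10^3 per well and grown 24 h beforehand at 37 °C, 5% CO2.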

SMILES | IC50 [1] | IC50 [2] | IC50 ([2]; Homo sapiens, NCI-H460, 72 h)
Cc1nc(-c2cccc(Oc3c([N+](=O)[O-])ccc4c3CCC4OP(=O)(N3CC3)N3CC3)c2)no1 (stereo not shown) [Example 89] | 6150 nM | 10 to 50 nM | 
O=[N+]([O-])c1ccc2c(c1Oc1ccc(F)c(OCC3CC3)c1)CC[C@H]2OP(=O)(N1CC1)N1CC1 [Example 488] | 857 nM |  | < 10 nM
Cc1nnc(-c2cccc(Oc3c([N+](=O)[O-])ccc4c3CC[C@@H]4OP(=O)(N3CC3)N3CC3)c2)s1 [Example 349] | 498 nM |  | < 10 nM
CSc1ccc(Oc2c([N+](=O)[O-])ccc3c2CC[C@@H]3OP(=O)(N2CC2)N2CC2)cc1 [Example 466] | 975 nM | < 10 nM | 
O=C1c2cc(Oc3cc4c(cc3[N+](=O)[O-])CCC4OP(=O)(N3CC3)N3CC3)ccc2CN1C1CC1 (single isomer, unassigned) [Example 170] | 801 nM |  | < 10 nM
Cc1ncn(-c2cc(Oc3c([N+](=O)[O-])ccc4c3CC[C@@H]4OP(=O)(N3CC3)N3CC3)ccc2F)n1 [Example 440] | 897 nM |  | < 10 nM
CC(C)c1cc(Oc2c([N+](=O)[O-])ccc3c2CCC3OP(=O)(N2CC2)N2CC2)ccc1F (stereo not shown) [Example 332] | 1960 nM | < 10 nM | 
O=[N+]([O-])c1cc2c(cc1Oc1ccc(-c3ccc(F)cn3)c(F)c1)C(OP(=O)(N1CC1)N1CC1)CC2 (stereo not shown) [Example 143] | 1720 nM | < 10 nM | 
O=[N+]([O-])c1cc2c(cc1Oc1ccc(-c3cccnc3)cc1)C(OP(=O)(N1CC1)N1CC1)CC2 (stereo not shown) [Example 515] | 7150 nM | 10 to 50 nM | 
O=[N+]([O-])c1ccc2c(c1Oc1cccc(-c3cn[nH]c3)c1)CC[C@@H]2OP(=O)(N1CC1)N1CC1 [Example 369] | 938 nM |  | < 10 nM
CSc1cccc(Oc2c([N+](=O)[O-])ccc3c2CC[C@H]3OP(=O)(N2CC2)N2CC2)c1 [Example 472] | 583 nM | < 10 nM | 
O=[N+]([O-])c1ccc2c(c1Oc1ccc(OC3COC3)cc1)CC[C@H]2OP(=O)(N1CC1)N1CC1 [Example 492] | 778 nM |  | < 10 nM
O=[N+]([O-])c1ccc2c(c1Oc1cccc(-n3cncn3)c1)CC[C@@H]2OP(=O)(N1CC1)N1CC1 [Example 435] | 482 nM |  | < 10 nM
O=C(c1ccc(Oc2c([N+](=O)[O-])ccc3c2CCC3OP(=O)(N2CC2)N2CC2)cc1)N1CCOCC1 (stereo not shown) [Example 35] | 472 nM | < 10 nM | 
O=[N+]([O-])c1cc2c(cc1Oc1ccc(C3CC3)cc1)C(OP(=O)(N1CC1)N1CC1)CC2 (stereo not shown) [Example 149] | 372 nM | < 10 nM | 
O=[N+]([O-])c1ccc2c(c1Oc1ccc(-c3ccc(F)cn3)c(F)c1)CCC2OP(=O)(N1CC1)N1CC1 (stereo not shown) [Example 92] | 1420 nM | < 10 nM | 
O=[N+]([O-])c1ccc2c(c1Oc1ccc(-n3cc(F)cn3)cc1)CCC2OP(=O)(N1CC1)N1CC1 (stereo not shown) [Example 422] | 821 nM | < 10 nM | 
CC(OP(=O)(N1C[C@H]1C)N1C[C@H]1C)c1ccc([N+](=O)[O-])c(Oc2ccc(-c3ccc(F)cn3)c(F)c2)c1 (stereo partly shown) [Example 222] | 3260 nM |  | 10 to 50 nM
O=C(c1cccc(Oc2cc3cc(COP(=O)(N4CC4)N4CC4)oc3cc2[N+](=O)[O-])c1)N1CCC1 [Example 535] | 378 nM |  | < 10 nM
Cn1c(=O)oc2cc(Oc3cc4c(cc3[N+](=O)[O-])CCC4OP(=O)(N3CC3)N3CC3)ccc21 (stereo not shown) [Example 174] | 244 nM |  | < 10 nM
CNC(=O)c1ccc(Oc2cc3c(cc2[N+](=O)[O-])CCC3OP(=O)(N2CC2)N2CC2)cc1 (single isomer, unassigned) [Example 151] | 306 nM | < 10 nM | 
Cn1cc(-c2ccc(Oc3c([N+](=O)[O-])ccc4c3CCC4OP(=O)(N3CC3)N3CC3)cc2)cn1 (single isomer, unassigned) [Example 58] | 1010 nM | 50 to 100 nM | 
O=[N+]([O-])c1ccc2c(c1Oc1ccc(-c3ccncc3)cc1)CCC2OP(=O)(N1CC1)N1CC1 (stereo not shown) [Example 62] | 6100 nM | ≥ 100 nM | 
CC(OP(=O)(N1C[C@H]1C)N1C[C@H]1C)c1ccc([N+](=O)[O-])c(Oc2ccc(-c3ccc(F)cn3)c(F)c2)c1 (stereo partly shown) [Example 224] | 6460 nM | < 10 nM | 
Cn1cncc1-c1cccc(Oc2c([N+](=O)[O-])ccc3c2CC[C@@H]3OP(=O)(N2CC2)N2CC2)c1 [Example 350] | 1870 nM |  | < 10 nM
Cc1cnn(-c2cccc(Oc3c([N+](=O)[O-])ccc4c3CC[C@@H]4OP(=O)(N3CC3)N3CC3)c2)c1 [Example 429] | 1960 nM |  | < 10 nM
